{"source": "PubChem BioAssay AID1963960", "about": "(Molecular Pharmacology Branch, DTP, NCI, 2024)", "tested_on": "MDA-MB-468 spheroids with HUVEC/MSC, viability", "assay": "Anticancer human tumor MDA-MB-468 cell line growth inhibition [PI3K];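 as to all read-outs here: spheroids exposed to agents for seven days before readout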;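 as to viability, T/C: 100% = DMSO vehicle control viability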", "details": "for IC50: curve of first compound; for viability, T/C: stronger effect = lower value", "summary_of_the_method": "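High-throughput combination screen: PI3K inhibitors crossed with targeted small molecules on complex spheroids of tumor cells, HUVEC and MSCs at 37 degrees C, 5% CO2. Top concentration was at or near clinical Cmax (otherwise 10 microM), with half-log decrements.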"}
{"smiles": "Cn1ncc(Cl)c1-c1cc(C(=O)NC(CN)Cc2cccc(F)c2)sc1Cl", "note": "(configuration not stated) + CC(Nc1ncnc2nc[nH]c12)c1cc2cccc(Cl)c2c(=O)n1-c1ccccc1", "values": [{"measurement": "IC50", "setting": "second compound 0.0316 µM", "result": 293, "unit": "nM"}, {"measurement": "IC50", "setting": "second compound 0.1 µM", "result": 338, "unit": "nM"}, {"measurement": "IC50", "setting": "second compound 0.316 µM", "result": 331, "unit": "nM"}, {"measurement": "IC50", "setting": "second compound 1 µM", "result": 242, "unit": "nM"}, {"measurement": "IC50", "setting": "second compound 3.16 µM", "result": 44.2, "unit": "nM"}, {"measurement": "IC50", "setting": "second compound 10 µM", "result": "< 31.6", "unit": "nM"}, {"measurement": "viability, T/C", "setting": "second compound 0.0316 µM, first compound 0.0316 µM", "result": 83.2, "unit": "%"}, {"measurement": "viability, T/C", "setting": "second compound 0.0316 µM, first compound 0.1 µM", "result": 73.1, "unit": "%"}, {"measurement": "viability, T/C", "setting": "second compound 0.0316 µM, first compound 0.316 µM", "result": 45.6, "unit": "%"}, {"measurement": "viability, T/C", "setting": "second compound 0.0316 µM, first compound 1 µM", "result": 32.3, "unit": "%"}, {"measurement": "viability, T/C", "setting": "second compound 0.0316 µM, first compound 3.16 µM", "result": 26, "unit": "%"}, {"measurement": "viability, T/C", "setting": "second compound 0.0316 µM, first compound 10 µM", "result": 17.7, "unit": "%"}, {"measurement": "viability, T/C", "setting": "second compound 0.1 µM, first compound 0.0316 µM", "result": 84.6, "unit": "%"}, {"measurement": "viability, T/C", "setting": "second compound 0.1 µM, first compound 0.1 µM", "result": 65.5, "unit": "%"}, {"measurement": "viability, T/C", "setting": "second compound 0.1 µM, first compound 0.316 µM", "result": 50.3, "unit": "%"}, {"measurement": "viability, T/C", "setting": "second compound 0.1 µM, first compound 1 µM", "result": 35.9, "unit": "%"}, {"measurement": "viability, T/C", "setting": "second compound 0.1 µM, first compound 3.16 µM", "result": 29.7, "unit": "%"}, {"measurement": "viability, T/C", "setting": "second compound 0.1 µM, first compound 10 µM", "result": 16.1, "unit": "%"}, {"measurement": "viability, T/C", "setting": "second compound 0.316 µM, first compound 0.0316 µM", "result": 68.7, "unit": "%"}, {"measurement": "viability, T/C", "setting": "second compound 0.316 µM, first compound 0.1 µM", "result": 63.4, "unit": "%"}, {"measurement": "viability, T/C", "setting": "second compound 0.316 µM, first compound 0.316 µM", "result": 51.1, "unit": "%"}, {"measurement": "viability, T/C", "setting": "second compound 0.316 µM, first compound 1 µM", "result": 33.9, "unit": "%"}, {"measurement": "viability, T/C", "setting": "second compound 0.316 µM, first compound 3.16 µM", "result": 29.1, "unit": "%"}, {"measurement": "viability, T/C", "setting": "second compound 0.316 µM, first compound 10 µM", "result": 18.6, "unit": "%"}, {"measurement": "viability, T/C", "setting": "second compound 1 µM, first compound 0.0316 µM", "result": 58.4, "unit": "%"}, {"measurement": "viability, T/C", "setting": "second compound 1 µM, first compound 0.1 µM", "result": 60.1, "unit": "%"}, {"measurement": "viability, T/C", "setting": "second compound 1 µM, first compound 0.316 µM", "result": 47, "unit": "%"}, {"measurement": "viability, T/C", "setting": "second compound 1 µM, first compound 1 µM", "result": 32.9, "unit": "%"}, {"measurement": "viability, T/C", "setting": "second compound 1 µM, first compound 3.16 µM", "result": 27.8, "unit": "%"}, {"measurement": "viability, T/C", "setting": "second compound 1 µM, first compound 10 µM", "result": 17.9, "unit": "%"}, {"measurement": "viability, T/C", "setting": "second compound 3.16 µM, first compound 0.0316 µM", "result": 51.7, "unit": "%"}, {"measurement": "viability, T/C", "setting": "second compound 3.16 µM, first compound 0.1 µM", "result": 45.4, "unit": "%"}, {"measurement": "viability, T/C", "setting": "second compound 3.16 µM, first compound 0.316 µM", "result": 40.8, "unit": "%"}, {"measurement": "viability, T/C", "setting": "second compound 3.16 µM, first compound 1 µM", "result": 32.6, "unit": "%"}, {"measurement": "viability, T/C", "setting": "second compound 3.16 µM, first compound 3.16 µM", "result": 25.9, "unit": "%"}, {"measurement": "viability, T/C", "setting": "second compound 3.16 µM, first compound 10 µM", "result": 20.2, "unit": "%"}, {"measurement": "viability, T/C", "setting": "second compound 10 µM, first compound 0.0316 µM", "result": 40.4, "unit": "%"}, {"measurement": "viability, T/C", "setting": "second compound 10 µM, first compound 0.1 µM", "result": 41.6, "unit": "%"}, {"measurement": "viability, T/C", "setting": "second compound 10 µM, first compound 0.316 µM", "result": 36.3, "unit": "%"}, {"measurement": "viability, T/C", "setting": "second compound 10 µM, first compound 1 µM", "result": 28, "unit": "%"}, {"measurement": "viability, T/C", "setting": "second compound 10 µM, first compound 3.16 µM", "result": 23.8, "unit": "%"}, {"measurement": "viability, T/C", "setting": "second compound 10 µM, first compound 10 µM", "result": 15.5, "unit": "%"}]}
